The NIST ThermoML archive (doi:10.1021/acs.jced.5b00934)

Details: Liquid, Vibrating tube method

CC(C)(C)O [2-methylpropan-2-ol]
Details	mass density [kg/m3]
333.15 K, 50000 kPa	788.7
333.15 K, 52050 kPa	790.2
333.15 K, 55010 kPa	792.3
333.15 K, 57996 kPa	794.3
333.15 K, 60003 kPa	795.6
338.15 K, 100 kPa	737.1
338.15 K, 309 kPa	737.3
338.15 K, 505 kPa	737.6
338.15 K, 898 kPa	738.1
338.15 K, 1003 kPa	738.2
338.15 K, 2001 kPa	739.5
338.15 K, 3005 kPa	740.8
338.15 K, 5003 kPa	743.2
338.15 K, 7014 kPa	745.6
338.15 K, 9004 kPa	747.9
338.15 K, 10002 kPa	749
338.15 K, 11998 kPa	751.2
338.15 K, 14999 kPa	754.4
338.15 K, 17997 kPa	757.5
338.15 K, 20007 kPa	759.4
338.15 K, 21999 kPa	761.4
338.15 K, 25000 kPa	764.2
338.15 K, 27994 kPa	766.9
338.15 K, 30011 kPa	768.6
338.15 K, 32005 kPa	770.4
338.15 K, 32998 kPa	771.2
338.15 K, 33033 kPa	771.2
338.15 K, 34007 kPa	772
338.15 K, 35000 kPa	772.9
338.15 K, 38031 kPa	775.3
338.15 K, 40024 kPa	776.9
338.15 K, 41998 kPa	778.5
338.15 K, 43195 kPa	779.4
338.15 K, 44574 kPa	780.4
338.15 K, 46152 kPa	781.6
338.15 K, 48333 kPa	783.3
338.15 K, 50050 kPa	784.5
338.15 K, 52462 kPa	786.3
338.15 K, 56690 kPa	789.2
338.15 K, 60003 kPa	791.5
343.15 K, 99 kPa	731
343.15 K, 305 kPa	731.3
343.15 K, 503 kPa	731.6
343.15 K, 901 kPa	732.1
343.15 K, 1002 kPa	732.2
343.15 K, 2000 kPa	733.6
343.15 K, 3001 kPa	734.9
343.15 K, 5005 kPa	737.5
343.15 K, 7004 kPa	740
343.15 K, 9033 kPa	742.4
343.15 K, 10020 kPa	743.6
343.15 K, 12001 kPa	745.8
343.15 K, 15002 kPa	749.1
343.15 K, 18001 kPa	752.3
343.15 K, 20018 kPa	754.4
343.15 K, 21994 kPa	756.4
343.15 K, 25026 kPa	759.3
343.15 K, 27993 kPa	762.1
343.15 K, 30004 kPa	763.9
343.15 K, 32000 kPa	765.7
343.15 K, 32963 kPa	766.6
343.15 K, 33001 kPa	766.6
343.15 K, 34002 kPa	767.5
343.15 K, 35003 kPa	768.3
343.15 K, 38027 kPa	770.8
343.15 K, 39998 kPa	772.5
343.15 K, 42000 kPa	774.1
348.15 K, 98 kPa	725.1
348.15 K, 295 kPa	725.3
348.15 K, 498 kPa	725.7
348.15 K, 898 kPa	726.2
348.15 K, 1004 kPa	726.4
348.15 K, 2006 kPa	727.8
348.15 K, 3001 kPa	729.2
348.15 K, 5005 kPa	731.9
348.15 K, 6999 kPa	734.5
348.15 K, 9012 kPa	737
348.15 K, 10014 kPa	738.2
348.15 K, 12003 kPa	740.6
348.15 K, 14999 kPa	744
348.15 K, 17999 kPa	747.3
348.15 K, 20000 kPa	749.4
348.15 K, 21998 kPa	751.5
348.15 K, 24996 kPa	754.4
348.15 K, 27995 kPa	757.3
348.15 K, 30045 kPa	759.3
348.15 K, 32000 kPa	761
348.15 K, 32878 kPa	761.8
348.15 K, 33012 kPa	761.9
348.15 K, 34000 kPa	762.8
348.15 K, 35001 kPa	763.7
348.15 K, 38001 kPa	766.3
348.15 K, 39999 kPa	768
348.15 K, 41997 kPa	769.6
348.15 K, 44999 kPa	772
353.15 K, 99 kPa	719
353.15 K, 300 kPa	719.3
353.15 K, 501 kPa	719.6
353.15 K, 897 kPa	720.2
353.15 K, 1000 kPa	720.3
353.15 K, 2000 kPa	721.8
353.15 K, 2999 kPa	723.2
353.15 K, 4999 kPa	726.1
353.15 K, 6999 kPa	728.8
353.15 K, 8998 kPa	731.4
353.15 K, 10003 kPa	732.6
353.15 K, 11997 kPa	735.1
353.15 K, 15001 kPa	738.7
353.15 K, 17999 kPa	742.1
353.15 K, 20000 kPa	744.2
353.15 K, 21999 kPa	746.4
353.15 K, 24997 kPa	749.4
353.15 K, 27999 kPa	752.5
353.15 K, 30004 kPa	754.4
353.15 K, 32003 kPa	756.3
353.15 K, 32985 kPa	757.1
353.15 K, 33002 kPa	757.2
353.15 K, 34000 kPa	758.1
353.15 K, 35004 kPa	759
353.15 K, 38477 kPa	762.2
353.15 K, 40002 kPa	763.4
353.15 K, 42035 kPa	765.1
353.15 K, 45022 kPa	767.6
353.15 K, 48092 kPa	770.1
353.15 K, 49989 kPa	771.5
358.15 K, 103 kPa	712.8
358.15 K, 293 kPa	713.1
358.15 K, 498 kPa	713.4
358.15 K, 899 kPa	714
358.15 K, 1003 kPa	714.2
358.15 K, 2008 kPa	715.7
358.15 K, 3003 kPa	717.3
358.15 K, 5003 kPa	720.2
358.15 K, 7003 kPa	723
358.15 K, 9001 kPa	725.8
358.15 K, 9998 kPa	727.1
358.15 K, 12010 kPa	729.7
358.15 K, 14999 kPa	733.3
358.15 K, 18040 kPa	736.9
358.15 K, 19997 kPa	739.1
358.15 K, 21995 kPa	741.3
358.15 K, 25017 kPa	744.5
358.15 K, 27994 kPa	747.6
358.15 K, 29991 kPa	749.6
358.15 K, 32001 kPa	751.5
358.15 K, 32997 kPa	752.5
358.15 K, 33015 kPa	752.5
358.15 K, 34056 kPa	753.5
358.15 K, 35075 kPa	754.4
358.15 K, 37998 kPa	757
358.15 K, 40001 kPa	758.8
358.15 K, 42007 kPa	760.6
358.15 K, 45002 kPa	763.1
358.15 K, 47995 kPa	765.5
358.15 K, 50001 kPa	767
363.15 K, 299 kPa	706.4
363.15 K, 502 kPa	706.8
363.15 K, 901 kPa	707.4
363.15 K, 1002 kPa	707.6
363.15 K, 2001 kPa	709.2
363.15 K, 3005 kPa	710.8
363.15 K, 5002 kPa	713.9
363.15 K, 7023 kPa	716.9
363.15 K, 9001 kPa	719.7
363.15 K, 10009 kPa	721.1
363.15 K, 12038 kPa	723.8
363.15 K, 14998 kPa	727.6
363.15 K, 18000 kPa	731.3
363.15 K, 20033 kPa	733.7
363.15 K, 22005 kPa	735.9
363.15 K, 25000 kPa	739.2
363.15 K, 28009 kPa	742.4
363.15 K, 30011 kPa	744.4
363.15 K, 32033 kPa	746.5
363.15 K, 32982 kPa	747.4
363.15 K, 33012 kPa	747.4
363.15 K, 34035 kPa	748.4
363.15 K, 34999 kPa	749.3
363.15 K, 37998 kPa	752.1
363.15 K, 39147 kPa	753.2
363.15 K, 40009 kPa	753.9
363.15 K, 41998 kPa	755.7
363.15 K, 44999 kPa	758.4
363.15 K, 47996 kPa	760.9
363.15 K, 49998 kPa	762.5
363.15 K, 52002 kPa	764.2
363.15 K, 55003 kPa	766.6
363.15 K, 57998 kPa	768.9
363.15 K, 59999 kPa	770.4
363.16 K, 38458 kPa	752.5
